From patent US8586505B2 (SDS Biotech K. K., priority 2009, dated 2013)

Tests used:
Format in all cases: in vivo
Sphaerotheca fuliginea = experiment: Test of examining control effect on Sphaerotheca fuliginea (potted cucumber plants); conditions: Podosphaera fuliginea, 336 h; 10% wettable powder adjusted to 125 ppm, 15 ml/pot sprayed on potted cucumber plants one day before spray inoculation; assessed after 14 days in greenhouse; read-out: Determination of control effect (preventive value) on Sphaerotheca fuliginea
How it was run: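 Cucumber plants (Sagamihanjiro, 2nd leaf stage) sprayed with 125 ppm compound (from 10% wettable powder), inoculated one day later with S. fuliginea conidia (1.0×10^5 cells/ml); lesion area scored after 14 days in greenhouse. Preventive value vs untreated; ≥60% high, <60% low control.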

[1] = system: Pseudoperonospora cubensis; experiment: Test of examining control effect on Pseudoperonospora cubensis (potted cucumber plants); conditions: 96 h, 10% wettable powder adjusted to 125 ppm, 15 ml/pot sprayed on potted cucumber plants one day before spray inoculation, assessed after 1 day wet chamber and 3 days greenhouse, read-out: Determination of control effect (preventive value) on Pseudoperonospora cubensis
How it was run: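 Cucumber plants (Sagamihanjiro, 2.5-leaf stage) sprayed with 125 ppm compound solution from 10% wettable powder, 15 ml/pot. One day later, spray-inoculated with P. cubensis conidia (1.0×10^4 cells/ml), kept 1 day at 21° C wet, then 3 days in greenhouse. Preventive value derived from lesion area relative to untreated plants.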

Phytophthora infestans = experiment: whole plant or invertebrate; conditions: in Solanum lycopersicum, 96 h, read-out: Determination of control effect (preventive value)

Compound	pest or weed control at 125 µg/mL (Sphaerotheca fuliginea)	pest or weed control at 125 µg/mL [1]	pest or weed control at 125 ppm (Phytophthora infestans)
COCc1ccccc1C#CCCNc1ncnc2cc(C(F)(F)F)ccc12 [compound 324]	0 to 60%	60 to 100%	0 to 60%
COCc1ccccc1C#CCCNc1ncnc2c(C)cccc12 [compound 325]	60 to 100%	60 to 100%	60 to 100%
COCc1ccccc1C#CCCNc1ncnc2ccc(C)cc12 [compound 326]	60 to 100%	60 to 100%	0 to 60%
COCc1ccccc1C#CCCNc1ncnc2c(C)cc(Cl)cc12 [compound 327]	0 to 60%	60 to 100%	0 to 60%
COCc1ccccc1C#CCCNc1ncnc2c(OC)cccc12 [compound 328]	60 to 100%	60 to 100%	0 to 60%
COCc1ccccc1C#CCCNc1ncnc2ccc(OC)cc12 [compound 329]	60 to 100%	60 to 100%	60 to 100%
COCc1ccccc1C#CCCNc1ncnc2ccc(C#N)cc12 [compound 330]	0 to 60%	60 to 100%	60 to 100%
COCc1ccccc1C#CCCNc1ncnc2ccc([N+](=O)[O-])cc12 [compound 331]	0 to 60%	60 to 100%	0 to 60%
COCc1ccccc1C#CCCNc1ncnc2ccc(SC)cc12 [compound 332]	0 to 60%	60 to 100%	0 to 60%
COCc1ccccc1C#CCCNc1ncnc2ccc(-c3ccccc3)cc12 [compound 333]	0 to 60%	60 to 100%	0 to 60%
COCc1ccccc1C#CCCNc1ncnc2ccc(-c3ccccc3F)cc12 [compound 334]	0 to 60%	60 to 100%	0 to 60%
COCc1ccccc1C#CCCNc1ncnc2ccc(-c3cccc(F)c3)cc12 [compound 335]	0 to 60%	60 to 100%	0 to 60%
COCc1ccccc1C#CCCNc1ncnc2ccc(-c3ccc(F)cc3)cc12 [compound 336]	0 to 60%	60 to 100%	0 to 60%
COCc1ccccc1C#CCCNc1ncnc2ccc(-c3cccnc3)cc12 [compound 337]	0 to 60%	60 to 100%	0 to 60%
COCc1ccccc1C#CCCNc1ncnc2ccc(OCC#Cc3ccccc3)cc12 [compound 339]	0 to 60%	60 to 100%	0 to 60%
COCc1ccccc1C#CCCNc1ncnc2ccc(OCc3ccccc3)cc12 [compound 340]	0 to 60%	60 to 100%	0 to 60%
COCc1ccccc1C#CCCNc1ncnc2c(C)cc(C)cc12 [compound 341]	0 to 60%	60 to 100%	0 to 60%
FC(F)(F)c1ccccc1C#CCCNc1ncnc2cc3ccccc3cc12 [compound 342]	0 to 60%	60 to 100%	0 to 60%
CC(CC#Cc1ccccc1C(F)(F)F)Nc1ncnc2c(F)cccc12 (stereo not drawn) [compound 343]	60 to 100%	60 to 100%	60 to 100%
CC(CC#Cc1ccc(Cl)cc1C(F)(F)F)Nc1ncnc2cc(F)ccc12 (stereo not drawn) [compound 344]	60 to 100%	60 to 100%	0 to 60%
CC(CC#Cc1ccc(Cl)cc1C(F)(F)F)Nc1ncnc2ccc(F)cc12 (stereo not drawn) [compound 345]	60 to 100%	60 to 100%	0 to 60%
CC(CC#Cc1ccc(Cl)cc1C(F)(F)F)Nc1ncnc2cccc(F)c12 (stereo not drawn) [compound 346]	60 to 100%	60 to 100%	0 to 60%
CC(CC#Cc1ccc(F)cc1C(F)(F)F)Nc1ncnc2cc(F)ccc12 (stereo not drawn) [compound 347]	60 to 100%	60 to 100%	0 to 60%
CC(CC#Cc1ccc(Cl)cc1C(F)(F)F)Nc1ncnc2c(Cl)cccc12 (stereo not drawn) [compound 349]	60 to 100%	60 to 100%	0 to 60%
CC(CC#Cc1ccc(Cl)cc1C(F)(F)F)Nc1ncnc2c(C(F)(F)F)cccc12 (stereo not drawn) [compound 351]	60 to 100%	60 to 100%	0 to 60%

Compound	pest or weed control at 125 µg/mL (Sphaerotheca fuliginea)	pest or weed control at 125 µg/mL [1]	pest or weed control at 125 ppm (Phytophthora infestans)
COc1cccc2c(NC(C)CC#Cc3ccc(Cl)cc3C(F)(F)F)ncnc12 (stereo not drawn) [compound 352]	60 to 100%	60 to 100%	0 to 60%
COc1cccc2c(NC(C)CC#Cc3ccc(F)cc3C(F)(F)F)ncnc12 (stereo not drawn) [compound 353]	60 to 100%	60 to 100%	0 to 60%
Cc1cccc2c(NC(C)CC#Cc3ccc(Cl)cc3C(F)(F)F)ncnc12 (stereo not drawn) [compound 354]	60 to 100%	60 to 100%	0 to 60%
Cc1cc(NCCC#Cc2ccc(Cl)cc2C(F)(F)F)ncn1 [compound 359]	0 to 60%	0 to 60%	0 to 60%
Cc1ncnc(NCCC#Cc2ccc(Cl)cc2C(F)(F)F)c1Cl [compound 360]	60 to 100%	60 to 100%	0 to 60%
COCc1cc(C)ccc1C#CCCNc1ncnc(C)c1Cl [compound 361]	60 to 100%	60 to 100%	60 to 100%
COCc1ccccc1C#CCCNc1ncnc(C)c1Cl [compound 362]	60 to 100%	60 to 100%	60 to 100%
COCc1ccccc1C#CCCNc1ncnc(Cl)c1C [compound 363]	60 to 100%	60 to 100%	60 to 100%
Cc1c(Cl)ncnc1NCCC#Cc1ccccc1C(F)(F)F [compound 364]	60 to 100%	60 to 100%	0 to 60%
COCc1ccccc1C#CCCNc1ncnc(Cl)c1Cl [compound 365]	60 to 100%	60 to 100%	60 to 100%
COCc1ccccc1C#CCCNc1ncnc(Cl)c1Br [compound 366]	60 to 100%	60 to 100%	60 to 100%
FC(F)(F)c1ccccc1C#CCCNc1ncnc(Cl)c1Br [compound 367]	60 to 100%	60 to 100%	0 to 60%
Nc1c(Cl)ncnc1NCCC#Cc1ccccc1C(F)(F)F [compound 368]	60 to 100%	60 to 100%	0 to 60%
CS(=O)(=O)c1ncnc(NCCC#Cc2ccccc2C(F)(F)F)c1[N+](=O)[O-] [compound 369]	0 to 60%	0 to 60%	0 to 60%
O=[N+]([O-])c1c(Cl)ncnc1NCCC#Cc1ccccc1C(F)(F)F [compound 370]	0 to 60%	0 to 60%	0 to 60%
CSc1ncnc(NCCC#Cc2ccccc2C(F)(F)F)c1[N+](=O)[O-] [compound 371]	0 to 60%	0 to 60%	0 to 60%
Clc1ncnc(NCCC#Cc2ccccc2)c1-c1ccccc1 [compound 373]	0 to 60%	0 to 60%	0 to 60%
CC(F)c1ncnc(NCCC#Cc2ccccc2)c1I (stereo not drawn) [compound 374]	60 to 100%	60 to 100%	0 to 60%
CC(F)c1ncnc(NCCC#Cc2ccccc2)c1Br (stereo not drawn) [compound 375]	60 to 100%	60 to 100%	60 to 100%
C(#Cc1ccccc1)CCNc1ncnc2[nH]ccc12 [compound 379]	60 to 100%	0 to 60%	0 to 60%
COCc1ccccc1C#CCCNc1ncnc2ncccc12 [compound 380]	60 to 100%	60 to 100%	60 to 100%
CC(CC#Cc1ccccc1)Nc1ncnc(C(C)F)c1I (stereo not drawn) [compound 381]	60 to 100%	60 to 100%	60 to 100%
CC(CC#Cc1ccc(Cl)cc1C(F)(F)F)Nc1ncnc(C(C)Cl)c1Cl (stereo not drawn) [compound 383]	60 to 100%	60 to 100%	0 to 60%
Cc1ncnc(NC(C)CC#Cc2ccc(Cl)cc2C(F)(F)F)c1I (stereo not drawn) [compound 386]	60 to 100%	60 to 100%	0 to 60%
